Laboratory results published in paper PMC9743426, “Expanding the Chemical Space of Drug-like Passerini Compounds: Can α-Acyloxy Carboxamides Be Considered Hard Drugs?” (ACS Medicinal Chemistry Letters, 2022).

Legend:
[1] = Hydrolytic stability in human liver microsomes (HLM); type: in vitro ADME; settings: for Residual substrate percentage, HLM: human liver microsomes 1.0 mg/mL protein, substrate 10 μM, 37 °C; for Residual substrate percentage, HLM / Hydrolytic stability in human liver microsomes (in words): 30 min; for Hydrolytic stability toward esterases (in words): liver microsomes, species stated only for the stable ester (human liver)
Procedure: This was made in light of the fact that the overall metabolizing capability of murine hepatic enzymes, including carboxylesterases, is supposed to be higher compared to the human ones.[17]
(§1) Hydrolytic stability in MLM and HLM
(§2) The standard incubation mixture (200 µL final volume) was carried out in a 50 mM TRIS-HCl buffer (pH 7.4) containing 150 mM KCl, tween 80 as cosolvent (0.8 mg/mg protein), and the substrate (10 μM). After pre-equilibration of the mixture, an appropriate volume of MLM or HLM suspension was added to give a final protein concentration of 1.0 mg/mL. The mixture was shaken for 30 minutes at 37 °C. Control incubations were carried out without the presence or microsomes or in pure acetonitrile. Each incubation was stopped by the addition of 200 µL ice-cold acetonitrile, vortexed and centrifuged at 13000 rpm for 5 min. The supernatants were analyzed by LC-HRMS. […]

[2] = Hydrolytic (chemical) stability in Tris-HCl buffer pH 7.4; type: physicochemical; settings: 50 mM Tris-HCl buffer pH 7.4, incubation 30 min, without microsomes
Procedure: (§3) For all 43 compounds, a first evaluation of their chemical and metabolic stabilities toward hydrolysis was performed by incubating them in buffer under physiological conditions (50 mM Tris-HCl, pH 7.4) and in mouse liver microsomes (Table 1). This model was chosen because, similar to the human liver, both of the carboxylesterase isoforms are present. […] A more interesting trend was instead possible to observe with benzoic acids.
as §1, §2

[3] = Hydrolytic stability in mouse liver microsomes (MLM); type: in vitro ADME; settings: 30 min; for Residual substrate percentage, MLM: mouse liver microsomes 1.0 mg/mL protein, substrate 10 μM, 37 °C
Procedure: as §3, §1, §2

| SMILES | Residual substrate percentage, HLM [1] | Residual substrate percentage, buffer [2] | Residual substrate percentage, MLM [3] | Hydrolytic stability toward esterases (in words) [1] | Hydrolytic stability toward esterases (in words) ([1]; listed as methyl 2,6-dimethylbenzoate) | Hydrolytic stability in human liver microsomes (in words) [1] | Hydrolysis of the ester group in mouse liver microsomes (in words) [3] |
| --- | --- | --- | --- | --- | --- | --- | --- |
| COC(=O)c1ccccc1 [Compound 11, methyl benzoate, reference compound] | < 1% | > 99% | < 1% |  |  |  |  |
| COC(=O)c1c(C)cccc1C [Compound 12, methyl 2,6-dimethylbenzoate, reference compound] | > 99% | > 99% | 77% | stable toward esterases | completely resistant to esterases |  |  |
| Cc1ccccc1C(OC(=O)c1ccccc1)C(=O)NC(C)(C)C (centres unmarked) [Compound 56] |  | >99% | <1% |  |  |  |  |
| CC(C)C(OC(=O)c1ccccc1)C(=O)NC(C)(C)C (centres unmarked) [Compound 59] |  | 94% | <1% |  |  |  |  |
| CCCCCCC(OC(=O)c1ccccc1)C(=O)NC(C)(C)C (centres unmarked) [Compound 60] |  | 93% | <1% |  |  |  |  |
| CC(C)(C)NC(=O)COC(=O)c1ccccc1 [Compound 61] |  | >99% | <1% |  |  |  |  |
| CC(C)(C)NC(=O)C(OC(=O)c1ccccc1)c1ccccc1 (centres unmarked) [Compound 62] |  | >99% | <1% |  |  |  |  |
| COc1ccc(C(OC(=O)c2ccccc2)C(=O)NC(C)(C)C)cc1 (centres unmarked) [Compound 63] |  | 92% | <1% |  |  |  |  |
| CCCCCCC(OC(=O)c1cccs1)C(=O)NC(C)(C)C (centres unmarked) [Compound 64] | <1% | >99% | <1% |  |  | instability |  |
| CC(C)C(OC(=O)/C=C/c1ccccc1)C(=O)NC(C)(C)C (centres unmarked) [Compound 65] | 3% | >99% | <1% |  |  | instability | completely unstable |
| COc1ccc(C(=O)OC(C(=O)NC(C)(C)C)C(C)C)cc1 (centres unmarked) [Compound 66] |  | 92% | <1% |  |  |  |  |
| Cc1ccc(C(=O)OC(C(=O)NC(C)(C)C)C(C)C)cc1 (centres unmarked) [Compound 67] |  | 94% | <1% |  |  |  |  |
| CC(C)C(OC(=O)c1ccc(Cl)cc1)C(=O)NC(C)(C)C (centres unmarked) [Compound 68] |  | >99% | <1% |  |  |  |  |
| CC(C)C(OC(=O)c1ccc([N+](=O)[O-])cc1)C(=O)NC(C)(C)C (centres unmarked) [Compound 69] |  | >99% | <1% |  |  |  |  |
| CC(=O)OC(C(=O)NC(C)(C)C)C(C)C (centres unmarked) [Compound 70] |  | 94% | 5% |  |  |  | easily hydrolyzed |
| CCCCCC(=O)OC(C(=O)NC(C)(C)C)C(C)C (centres unmarked) [Compound 71] |  | 91% | <1% |  |  |  | easily hydrolyzed |
| CC(C)(C)NC(=O)C(OC(=O)c1ccccc1)c1ccc(Cl)cc1 (centres unmarked) [Compound 72] |  | >99% | <1% |  |  |  | rapidly cleaved |
| CC(C)C(OC(=O)C(C)(C)C)C(=O)NC(C)(C)C (centres unmarked) [Compound 73] | 52% | >99% | 30% |  |  | moderately more stable | easily hydrolyzed |
| CC(C)C(OC(=O)Cc1ccccc1)C(=O)NC(C)(C)C (centres unmarked) [Compound 74, 1-(tert-butylamino)-3-methyl-1-oxobutan-2-yl 2-phenylacetate] |  | >99% | 17% |  |  |  | easily hydrolyzed |
| CC(C)C(OC(=O)CCCCCc1ccccc1)C(=O)NC(C)(C)C (centres unmarked) [Compound 75, 1-(tert-butylamino)-3-methyl-1-oxobutan-2-yl 6-phenylhexanoate] |  | >99% | <1% |  |  |  | easily hydrolyzed |

| SMILES | Residual substrate percentage, HLM [1] | Residual substrate percentage, buffer [2] | Residual substrate percentage, MLM [3] | Hydrolytic stability toward esterases (in words) [1] | Hydrolytic stability toward esterases (in words) ([1]; listed as methyl 2,6-dimethylbenzoate) | Hydrolytic stability in human liver microsomes (in words) [1] | Hydrolysis of the ester group in mouse liver microsomes (in words) [3] |
| --- | --- | --- | --- | --- | --- | --- | --- |
| CC(C)C(OC(=O)COc1ccccc1)C(=O)NC(C)(C)C (centres unmarked) [Compound 76, 1-(tert-butylamino)-3-methyl-1-oxobutan-2-yl 2-phenoxyacetate] |  | >99% | <1% |  |  |  | completely unstable |
| CCCCCCCCCCCC(=O)OC(C(=O)NC(C)(C)C)C(C)C (centres unmarked) [Compound 77, 1-(tert-butylamino)-3-methyl-1-oxobutan-2-yl dodecanoate] |  | 77% | 7% |  |  |  | easily hydrolyzed |
| Cc1cccc(C)c1C(=O)OCC(=O)NC(C)(C)C [Compound 79] |  | 95% | 94% |  |  |  |  |
| Cc1ccccc1C(=O)OCC(=O)NC(C)(C)C [Compound 81] |  | >99% | <1% |  |  |  | the hydrolysis of the ester was complete |
| CC(C)(C)NC(=O)COC(=O)Cc1c(Cl)cccc1Cl [Compound 82] |  | >99% | 1% |  |  |  | easily hydrolyzed |
| CC(C)(C)NC(=O)COC(=O)C(=O)c1ccccc1 [Compound 83] |  | <1% | <1% |  |  |  | completely unstable |
| CC(C)(C)NC(=O)COC(=O)C(C)(C)Oc1ccc(Cl)cc1 [Compound 84] | 2% | >99% | <1% |  |  | instability | completely unstable |
| CC(C)(C)NC(=O)COC(=O)c1c(F)cccc1F [Compound 85] |  | >99% | <1% |  |  |  | completely hydrolyzed |
| CC(C)(C)NC(=O)COC(=O)c1ccccc1Br [Compound 86] |  | >99% | <1% |  |  |  | the hydrolysis of the ester was complete |
| CC(C)(C)NC(=O)COC(=O)c1ccccc1I [Compound 87] |  | >99% | <1% |  |  |  | the hydrolysis of the ester was complete |
| CC(C)(C)NC(=O)COC(=O)c1ccccc1-c1ccccc1 [Compound 88] |  | >99% |  |  |  |  |  |
| Cc1c(Br)cccc1C(=O)OCC(=O)NC(C)(C)C [Compound 89] | <1% | >99% | 1% |  |  | easy hydrolysis | the hydrolysis of the ester was complete |
| CC(C)(C)NC(=O)COC(=O)c1ccccc1Cl [Compound 90] |  | >99% | <1% |  |  |  | the hydrolysis of the ester was complete |
| CC(C)(C)NC(=O)COC(=O)C(C)(C)c1ccc(Br)cc1 [Compound 91] |  | >99% | 12% |  |  |  | easily hydrolyzed |
| CCC(C(=O)OCC(=O)NC(C)(C)C)c1ccccc1 (centres unmarked) [Compound 92] |  | >99% | <1% |  |  |  | easily hydrolyzed |
| Cc1cccc(C)c1C(=O)OC(C(=O)NC(C)(C)C)C(C)C (centres unmarked) [Compound 93] |  | >99% | >99% |  |  |  |  |
| Cc1cccc(C)c1C(=O)OCC(=O)NCc1ccccc1 [Compound 94] |  | >99% | >99% |  |  |  |  |
| CC(C)(C)NC(=O)COC(=O)c1c(Cl)cccc1Cl [Compound 95] |  | >99% | 78% |  |  |  |  |
| CC(C)(C)NC(=O)COC(=O)c1c(Cl)cccc1C(F)(F)F [Compound 96] |  | >99% | >99% |  |  |  |  |
| CC(C)(C)NC(=O)COC(=O)C12CC3CC(CC(C3)C1)C2 [Compound 97] | 2% | >99% | 1% |  |  | instability | rapidly metabolized |
